Measured values taken from ChEMBL document CHEMBL3507680, “University of Dundee, Gates Library screen for HepG2 cell viability”.

Experiment: Human HepG2 cell viability assay in 384 well format
Format: toxicity, cell-based
Parameters: dose 125 nL, time 70.5 hour; cytotoxicity at 70.5 h: concentration not given beside the values
Conditions: HepG2 cells, read-out: Inhibition

| SMILES | cytotoxicity at 70.5 h |
| --- | --- |
| COc1ccc(C(=O)c2cnc(C(C)C)n2C)cc1 | 17.7% |
| Cn1c2ccccc2c2ncn(CCN3CCOCC3)c(=O)c21 | 11.8% |
| CCOn1c(SC(C)C)nc2ccccc2c1=O | -8.12% |
| O=C(CN1CCN(C(=O)c2ccccc2)CC1)Nc1ncc(Br)cc1Br | -1.02% |
| CC(C)c1nnc(NC(=O)CCC(=O)NCC2CCCO2)s1 (stereo not drawn) | -12.5% |
| CCSc1nc2ccccc2c(=O)n1OCC(=O)OC | -8.5% |
| O=C(CN1CCOCC1)Nc1ncc(Br)cc1Br | -5.32% |
| COCCCN(Cc1ccccn1)S(=O)(=O)Cc1ccccc1 | -18.4% |
| COc1ccc(Nc2c[nH]c(=O)[nH]c2=O)cc1 | 4.35% |
| Cn1c(CC(=O)O)c(Sc2ccccc2)c2ccccc21 | -0.644% |
| COc1cccc(Oc2nc(C)c(C(=O)O)s2)c1OC | -13.3% |
| Cn1nc(-c2ccccc2)c(Br)c1C(=O)O | -23.2% |
| O=C(O)Cn1ccc(=O)c2ccc(Cl)cc21 | -7.34% |
| CC(C)CCc1n[nH]c(C(=O)O)c1Br | -7.1% |
| CC(C)CCc1n[nH]c(C(=O)O)c1I | -8.29% |
| Cn1nc(-c2ccc(Cl)cc2)c(Br)c1C(=O)O | -23.3% |
| CC(C)Oc1ccc(CC2=N[C@](C)(CO)CO2)cc1 | 21.4% |
| Nc1nc2c(c3c1C(=O)NC3=O)CCCC2 | -9.66% |
| C/C(NC(=O)c1ccccn1)=C1\C(=O)C[C@@H]2[C@H]1C2(C)C | -2.07% |
| Cc1c(C2N3C[C@]4(C)CN2C[C@](C)(C3)C4=O)[nH]c(=O)[nH]c1=O (stereo partly drawn) | -11.7% |
| O=C(Cn1ccc2ccc(F)cc21)NC[C@@H]1CCCN2CCCC[C@H]12 | 8.28% |
| O=C(CCn1ccc2cc(Br)ccc21)NC[C@@H]1CCCN2CCCC[C@H]12 | 19.3% |
| COc1cccc2ccn(CC(=O)NCCC(C)C)c12 | 11% |

| SMILES | cytotoxicity at 70.5 h |
| --- | --- |
| COc1cccc2ccn(CC(=O)NC(C)C)c12 | 11.3% |
| COCC(=O)N(Cc1ccc2cc[nH]c2c1)C1CC1 | -21% |
| COc1c(C(N)=O)cn(C)c1-c1nc2cc(NC(C)=O)ccc2n1C | -14.7% |
| CSCC[C@H](NC(=O)Cn1ccc2c(Br)cccc21)C(=O)O | -21.8% |
| Cc1nn(-c2ncnc3[nH]cnc23)c2c1C(CC(C)C)CC(=O)N2 (stereo not drawn) | -2.59% |
| COc1ccc2c(ccn2CC(=O)NC[C@@H]2CCCN3CCCC[C@H]23)c1 | -7.27% |
| O=C(Cn1ccc2ccccc21)NC[C@@H]1CCCN2CCCC[C@H]12 | -10.1% |
| Cc1cccc2c1ccn2CC(=O)NC[C@@H]1CCCN2CCCC[C@H]12 | -6.63% |
| O=C(NCCCO)c1cc(-c2ccc3c(c2)CCO3)n[nH]1 | 14.5% |
| CC[S+](CC)[c-]1c(=O)[nH]c(=O)n(Cc2ccc(F)cc2)c1=O | 3.21% |
| CN(C)c1no[n+]([O-])c1-c1ccccc1 | 20.3% |
| Cc1cc(NCCO)nc(-c2ccccc2O)n1 | 6.62% |
| COc1ccc2c(c1)[nH]c1c(N(C)CC3OCCO3)ncnc12 | 7.79% |
| CCSc1nnc(CCNC(=O)OC(C)(C)C)o1 | 13% |
| COc1cccc(-c2nc(CC(=O)NC3(C)CCS(=O)(=O)C3)cs2)c1 (stereo not drawn) | -8.05% |
| O=C(O)CCNC(=O)N1CCc2c([nH]c3ccc(Cl)cc23)C1 | -6.59% |
| CCOC(=O)COc1nc(CC(C)C)c2c(c1C#N)CCC2 | 1.02% |
| C[C@@H](CO)NC(=O)c1ccc2nc(NS(C)(=O)=O)sc2c1 | -2.43% |
| COc1ccc(-c2nc(C#N)c(N(C)C)o2)cc1S(=O)(=O)N1CCCC1 | 14.1% |
| Cc1ccc(NC(=O)CC2NC(N3CCc4ccccc43)=NC2=O)cc1 (stereo not drawn) | -7.26% |
| O=C(c1ccccc1)N(CC1CC1)c1cccnc1 | -1.58% |
| O=C(c1nc(Cc2c[nH]c3ccccc23)no1)N1CCOCC1 | -3.8% |
| O=C(C1CC=CC1)N1CC[C@@H]2O[C@@H](COCC3CCOCC3)CC[C@@H]21 | 6.54% |

| SMILES | cytotoxicity at 70.5 h |
| --- | --- |
| O=C([C@H]1CCS(=O)(=O)[C@@H]2CN(Cc3ccc(F)cc3)C[C@H]12)N1CCCC1 | -4.67% |
| O=C(C1CC=CC1)N1CC[C@@H]2O[C@H](COCC3CCOCC3)CC[C@@H]21 | -6.77% |
| CC(=O)N1CC(c2ncn(C(C)C)n2)c2cc(C(=O)NC3CC3)ccc21 (stereo not drawn) | 14.1% |
| COc1cc(C)nc(N2CCN(C(=O)c3cccc(C#N)c3)CC2)n1 | -5.09% |
| CCOc1ccnc(N2CCN(C(=O)c3cccnc3)CC2)n1 | -8.35% |
| CC(C)c1nccn1C1CCCN(C(=O)c2nccnc2N)C1 (stereo not drawn) | 17.2% |
| Cc1ncncc1C(=O)N1CCOC(c2nc(C(C)C)n[nH]2)C1 (stereo not drawn) | -4.74% |
| Cc1cc(C)n(CC2CN(CCOc3ccc(C#N)cc3)CCO2)n1 (stereo not drawn) | -4.48% |
| O=C(NCc1ccccc1Cn1cncn1)C1CCC1 | -4.18% |
| O=C(NCc1ccccc1Cn1cncn1)C1CCCCC1 | -9.09% |
| O=C(CCS(=O)(=O)C1CCCC1)NCc1ccccc1Cn1cncn1 | -11% |
| Cc1nccn1-c1cc(CNC(=O)NCC2CCCO2)ccn1 (stereo not drawn) | -0.7% |
| OCCn1nccc1C1CCN(CCOc2cccc(F)c2)CC1 | -1.45% |
| Cc1ccc(C(C)NCc2c(C(C)C)nn(C)c2N2CCOCC2)o1 (stereo not drawn) | -5.88% |
| CC(C)c1nn(C)c(N(C)C)c1CNCc1cccc2c1OCO2 | -3.25% |
| Cc1ncsc1C(=O)NC1CCN(CC(N)=O)CC1 | -6.12% |
| O=C(c1cccnc1N1CCCCC1)N1CCCC(n2cccn2)C1 (stereo not drawn) | 15.6% |
| Cc1cccc(OCCNC(=O)CN2CCc3cncnc3C2)c1 | -7.19% |
| Cc1cnn(CC2CCCN2C(=O)c2c(C)noc2C(C)C)c1 (stereo not drawn) | 11.7% |
| c1ccc(-n2cc(CNCC3CCCN3c3cccnn3)nn2)cc1 (stereo not drawn) | -1.58% |
| CC(C)c1n[nH]c(C2CN(C(=O)c3cn4ccccc4n3)CCO2)n1 (stereo not drawn) | 15.7% |
| CC(C)c1n[nH]c(C2CN(C(=O)c3cc(C(N)=O)cs3)CCO2)n1 (stereo not drawn) | 0.559% |
| CC(C)c1n[nH]c(C2CN(C(=O)c3cc(C4CC4)[nH]n3)CCO2)n1 (stereo not drawn) | -10.5% |

| SMILES | cytotoxicity at 70.5 h |
| --- | --- |
| Cc1cnn(CC(C)NCc2nc(-c3cccs3)no2)c1 (stereo not drawn) | -7.53% |
| CC(Cn1cccn1)NCc1nc(-c2ccco2)no1 (stereo not drawn) | -16.5% |
| Cc1nc(C)n(CC2CN(Cc3cccc(OC(C)C)c3)CCO2)n1 (stereo not drawn) | -10.6% |
| CC(C)c1ncc2c(n1)CN(Cc1nc(-c3ccsc3)no1)CC2 | -13.7% |
| Cc1nc(C)n(CC2CN(Cc3ccccc3OC(C)C)CCO2)n1 (stereo not drawn) | -9.52% |
| CC(C)c1nccc(N2CCN(CC(=O)N3CCOCC3)CC2)n1 | -10.5% |
| CC(C)c1noc(C(C)N2CCN(Cc3cccs3)CC2)n1 (stereo not drawn) | 12.6% |
| COc1ccc(C)cc1CN1CCOC(Cn2nc(C)nc2C)C1 (stereo not drawn) | -19.6% |
| Cc1nc(C)n(CC2CN(Cc3cccc4ccccc34)CCO2)n1 (stereo not drawn) | -11.6% |
| c1cc(CN2CCOC(Cn3cccn3)C2)c2c(c1)OCCO2 (stereo not drawn) | -14.1% |
| CCc1ccc(CNC(=O)NCc2nnc3n2CCC3)s1 | 17.1% |
| O=C(NCCc1ccc(Cl)s1)NCc1nnc2n1CCCC2 | -12.9% |
| Cc1cnc2c(S(=O)(=O)N(C)C3CCS(=O)(=O)C3)cccc2c1 (stereo not drawn) | -16.4% |
| CCC1CN(C(=O)CN2CCN(c3nccc(OC)n3)CC2)CCO1 (stereo not drawn) | -12.3% |
| CC(Cn1cccn1)NCc1nc(-c2ccsc2)no1 (stereo not drawn) | 5.46% |
| COc1ccnc(N2CCN(CC(O)CN3CCOCC3)CC2)n1 (stereo not drawn) | -8.1% |
| Cc1nc(C)n(CC2CCCN(Cc3cccc4c3OCCO4)C2)n1 (stereo not drawn) | 12% |
| Cc1nc(C)n(CC2CN(Cc3nc4ccccc4n3C)CCO2)n1 (stereo not drawn) | -13.3% |
| Cc1nc(C)n(CC2CN(Cc3ccccc3C#N)CCO2)n1 (stereo not drawn) | -3.74% |
| CCCn1nc2c(cc1=O)CN(Cc1nc(C)c(C)o1)CC2 | -9.42% |
| O=C(c1cc(Cl)c[nH]1)N1CCCC(c2cc(C(F)(F)F)[nH]n2)C1 (stereo not drawn) | 3.82% |
| CCSc1nnc([C@@H](N)CC(C)C)o1 | -7.55% |
| Cc1cccc(CS(=O)(=O)c2nnc([C@@H](N)Cc3ccccc3)o2)c1 | 12.4% |

| SMILES | cytotoxicity at 70.5 h |
| --- | --- |
| CCOC(=O)CSc1nnc([C@@H](N)C(C)CC)o1 (stereo partly drawn) | -9.94% |
| CCOC(=O)CSc1nnc([C@@H](N)C(C)C)o1 | -7.09% |
| CCOC(=O)CSc1nnc([C@@H](N)CC(C)C)o1 | -6.75% |
| Cc1ccc(C(CCNCCCN(C)C)C2CCOC(C)(C)C2)cc1 (stereo not drawn) | 30.6% |
| Cc1cnc(N2CCCC3(CCCN3CC(=O)N(C)C)C2)nc1 (stereo not drawn) | 12.8% |
| O=C(NC1CCC1)[C@H]1CCS(=O)(=O)[C@@H]2CN(CCc3ccccc3)C[C@H]12 | 0.419% |
| CN(C)C(=O)CN1CCCC12CCCN(c1ncc(F)cn1)C2 (stereo not drawn) | -4.71% |
| Cc1noc(C)c1CN1CCc2ncc(Cn3cccn3)n2CC1 | -5.78% |
| Cn1cc(C(=O)N2CC[C@@H]3[C@@H]2CCN3c2ncc(F)cn2)cn1 | -5.7% |
| CN1CCN(c2ccc3ccc(C(=O)N4CCCCO4)cn23)CC1 | -6.94% |
| COCCN1CCC2(CC1)CC1(CCN(S(C)(=O)=O)CC1)N(C)C2=O | -7.2% |
| CCCS(=O)(=O)N1C[C@@H]2COC[C@]2(CN2CCOCC2)C1 | -10.5% |
| CCc1ccc2c(C3CN(CC4CCC4)C3)ncn2c1 | -6.64% |
| O=C(c1cocn1)N1C[C@@H]2CN(Cc3ccco3)CCO[C@@H]2C1 | -9.1% |
| O=C(c1cc[nH]n1)N1CCC(F)(F)C2(CCN(c3ccccn3)C2)C1 (stereo not drawn) | 11% |
| c1cnc(N2CC[C@@H](N3CCOCC3)[C@@H]2Cc2ccncc2)nc1 | 11.8% |
| Fc1cnc(N2CC[C@@H](N3CCOCC3)[C@@H]2Cc2cccnc2)nc1 | 9.63% |
| Cc1cnc(N2CC[C@@H](N3CCOCC3)[C@@H]2Cc2ccncc2)nc1 | -1.98% |
| CCN(CC)Cc1cnc2n1CCN(Cc1c(C)noc1C)CC2 | 5.41% |
| O=C(O)c1cc2c(nc1-c1cncnc1)CCN(C1CCOC1)CC2 (stereo not drawn) | 11.3% |
| Cc1noc(C)c1CN1CCn2c(CN3CCN(C)CC3)cnc2C1 | -14.6% |
